What all share (format): biochemical
Assay [1] deals with human TYK2 catalytic kinase (JH1) domain (Homo sapiens (Human), UniProt P29597). The experiment in a line: ADP-Glo Kinase Assay, recombinant TYK2 catalytic kinase (JH1) domain. To be noted: recombinant JH1 domain 2 nM, 10 μM ATP, JAK3-974 peptide, mean, read-out: TYK2 biochem IC50 (nM) Mean. The essentials: (§1)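 Reactions ran 100 min with 50 μM substrate peptide (JAK3-342 for JAK1 at 4 nM enzyme; JAK3-974 for JAK2 0.2 nM, JAK3 0.3 nM, TYK2 2 nM), and ADP formed was read by ADP-Glo luminescence. Eleven-point 3-fold series from 10 or 1 μM; IC50 fitted by 4-parameter logistic model.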
human TYK2 catalytic kinase (JH1) domain, sequence (P29597 897-1176): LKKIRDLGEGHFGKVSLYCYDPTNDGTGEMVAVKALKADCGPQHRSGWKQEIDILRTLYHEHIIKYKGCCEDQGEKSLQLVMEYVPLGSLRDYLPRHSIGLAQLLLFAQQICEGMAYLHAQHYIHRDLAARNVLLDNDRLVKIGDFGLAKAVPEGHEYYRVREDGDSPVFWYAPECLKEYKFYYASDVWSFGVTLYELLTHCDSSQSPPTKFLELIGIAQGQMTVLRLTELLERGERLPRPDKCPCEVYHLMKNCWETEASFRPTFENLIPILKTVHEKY

Assay [2] concerns the target human JAK1 catalytic kinase (JH1) domain (Homo sapiens (Human), UniProt P23458). Nature of the assay: ADP-Glo Kinase Assay, recombinant JAK1 catalytic kinase (JH1) domain. To be noted: recombinant JH1 domain 4 nM, 35 μM ATP, JAK3-342 peptide, mean, read-out: JAK1 biochem IC50 (nM) Mean. An outline of the steps:
as §1
In general terms: ADP-Glo first removes unused ATP, then detects ADP through luciferase.

For assay [3], the target named is human JAK2 catalytic kinase (JH1) domain (Homo sapiens (Human), UniProt O60674). Nature of the assay: ADP-Glo Kinase Assay, recombinant JAK2 catalytic kinase (JH1) domain. To be noted: recombinant JH1 domain 0.2 nM, 15 μM ATP, JAK3-974 peptide, mean, read-out: JAK2 biochem IC50 (nM) Mean. An outline of the steps:
as §1

The target in assay [4] is human JAK3 catalytic kinase (JH1) domain (Homo sapiens (Human), UniProt P52333). Nature of the assay: ADP-Glo Kinase Assay, recombinant JAK3 catalytic kinase (JH1) domain. The settings on record: recombinant JH1 domain 0.3 nM, 4 μM ATP, JAK3-974 peptide, mean, read-out: JAK3 biochem IC50 (nM) Mean. The essentials:
as §1

human JAK1 catalytic kinase (JH1) domain, sequence (P23458 875-1153): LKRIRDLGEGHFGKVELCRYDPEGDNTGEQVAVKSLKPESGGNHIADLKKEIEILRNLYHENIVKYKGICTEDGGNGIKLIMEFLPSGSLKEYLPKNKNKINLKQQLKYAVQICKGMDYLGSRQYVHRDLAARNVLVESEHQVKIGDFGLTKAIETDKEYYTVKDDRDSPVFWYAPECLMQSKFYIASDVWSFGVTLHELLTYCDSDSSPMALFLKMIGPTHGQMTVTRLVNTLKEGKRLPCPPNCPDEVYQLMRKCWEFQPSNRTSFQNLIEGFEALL
human JAK3 catalytic kinase (JH1) domain, sequence (P52333 822-1111): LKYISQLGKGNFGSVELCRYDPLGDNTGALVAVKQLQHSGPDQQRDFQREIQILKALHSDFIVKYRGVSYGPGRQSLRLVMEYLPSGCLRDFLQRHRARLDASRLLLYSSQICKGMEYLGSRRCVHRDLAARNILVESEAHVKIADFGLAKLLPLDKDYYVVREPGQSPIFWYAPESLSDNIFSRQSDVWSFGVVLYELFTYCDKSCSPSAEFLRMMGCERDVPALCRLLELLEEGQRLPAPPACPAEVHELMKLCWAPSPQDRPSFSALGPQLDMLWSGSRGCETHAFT
human JAK2 catalytic kinase (JH1) domain, sequence (O60674 849-1124): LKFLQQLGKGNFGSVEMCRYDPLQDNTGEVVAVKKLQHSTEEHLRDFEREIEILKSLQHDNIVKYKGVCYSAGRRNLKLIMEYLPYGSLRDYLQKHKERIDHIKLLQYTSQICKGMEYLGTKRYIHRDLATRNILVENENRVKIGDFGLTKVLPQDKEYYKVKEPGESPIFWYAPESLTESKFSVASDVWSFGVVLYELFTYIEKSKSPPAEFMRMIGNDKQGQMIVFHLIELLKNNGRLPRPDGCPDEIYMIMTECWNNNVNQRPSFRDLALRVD

As to `Cn1cc(-c2cc3c(N4CC5CCC(C4)N5S(=O)(=O)C4CC4)ncnn3c2)cn1` [Example 187, 4-(8-(cyclopropylsulfonyl)-3,8-diazabicyclo[3.2.1]octan-3-yl)-6-(1-methyl-1H-pyrazol-4-yl)pyrrolo[2,1-f][1,2,4]triazine], the concentration for half-maximal inhibition (IC50) in assay [1] was 643 nM; in assay [2], 9660 nM; in assay [3], 5410 nM; in assay [4], 9430 nM.
Turning to `Cn1cc(-c2cc3c(N4CC5CCC(C4)N5C(=O)[C@H]4CC4(F)F)ncnn3c2)cn1` [Example 84, ((R)-2,2-difluorocyclopropyl)(3-(6-(1-methyl-1H-pyrazol-4-yl)pyrrolo[2,1-f][1,2,4]triazin-4-yl)-3,8-diazabicyclo[3.2.1]octan-8-yl)methanone], the IC50 in assay [1] was 55 nM; in assay [2] it was 1800 nM; in assay [3] it was 1220 nM; in assay [4] it was 6890 nM.
For `O=C(C1CC1)N1C2CCC1CN(c1ncnn3cc(-c4cnn(CF)c4)cc13)C2` [Example 155], in that order: 293 nM, 1810 nM, 5180 nM and 4000 nM.
In the case of `Cc1ccc(-c2cc3c(N4CC5CCC(C4)N5C(=O)[C@@H]4C[C@H]4F)ncnc3[nH]2)cn1` [Example 224, ((1S,2R)-2-fluorocyclopropyl)(3-(6-(6-methylpyridin-3-yl)-7H-pyrrolo[2,3-d]pyrimidin-4-yl)-3,8-diazabicyclo[3.2.1]octan-8-yl)methanone], the IC50 was found to be 19.2 nM in assay [1], 234 nM in assay [2], 462 nM in assay [3] and 1100 nM in assay [4].
For `Cn1cc(-c2cc3c(N4CC5CCC(C4)N5S(=O)(=O)C4CC4)ccnc3[nH]2)cn1` [Example 193], in that order: 10.1 nM, 200 nM, 36 nM and 199 nM.
For `Cn1cc(-c2cc3c(N4CC5CCC(C4)N5C(=O)C4CC4)ncnn3c2)nn1` [Example 186, cyclopropyl(3-(6-(1-methyl-1H-1,2,3-triazol-4-yl)pyrrolo[2,1-f][1,2,4]triazin-4-yl)-3,8-diazabicyclo[3.2.1]octan-8-yl)methanone], in that order: 845 nM, no less than 10000 nM, 9850 nM and no less than 10000 nM.
In the same order, the values of `COc1cncc(-c2cc3c(N4CC5CCC(C4)N5C(=O)[C@@H]4C[C@H]4F)ccnn3c2)n1` [Example 123, ((1S,2R)-2-fluorocyclopropyl)(3-(6-(6-methoxypyrazin-2-yl)pyrrolo[1,2-b]pyridazin-4-yl)-3,8-diazabicyclo[3.2.1]octan-8-yl)methanone] are 23.7 nM, 302 nM, 386 nM and 5510 nM.
Take `O=C([C@@H]1C[C@H]1F)N1C2CCC1CN(c1ncnn3cc(-c4ccc(=O)n(C(F)F)c4)cc13)C2` [Example 110, 1-(difluoromethyl)-5-(4-(8-((1S,2R)-2-fluorocyclopropane-1-carbonyl)-3,8-diazabicyclo[3.2.1]octan-3-yl)pyrrolo[2,1-f][1,2,4]triazin-6-yl)pyridin-2(1H)-one]: the half-maximal inhibitory concentration (IC50) is 56.5 nM in assay [1], 758 nM in assay [2], 812 nM in assay [3] and 3960 nM in assay [4].
Consider `O=C([C@@H]1C[C@H]1F)N1C2CCC1CN(c1ccnn3cc(-c4ccnc(N5CC(F)(F)C5)c4)cc13)C2` [Example 120, (3-(6-(2-(3,3-difluoroazetidin-1-yl)pyridin-4-yl)pyrrolo[1,2-b]pyridazin-4-yl)-3,8-diazabicyclo[3.2.1]octan-8-yl)((1S,2R)-2-fluorocyclopropyl)methanone], for which the IC50 is 85.2 nM in assay [1], 1650 nM in assay [2], 636 nM in assay [3] and 10000 nM in assay [4].

Usually IC50 stands for the concentration that gives 50% inhibition.

The values are drawn from US20240360157A1, “TYK2 INHIBITORS” (BIOGEN MA INC., priority 2021, published 2024).
